Experiments:
[1] = test system: type III secretion in S. typhimurium; assay: microbe, parasite or virus in culture; type: cell-based, Salmonella enterica serovar Typhimurium; settings: for % inhibition of SipA secretion: Western blot
[2] = test system: S. typhimurium T3S secreted substrates; type: cell-based; settings: Western blot
[3] = test system: Ysc T3S system; assay: Secretion profile of Y. enterocolitica Ysc T3S system; type: cell-based, Yersinia enterocolitica; settings: 380 μM
[4] = test system: Ysa T3S system; assay: Secretion profile of Y. enterocolitica Ysa T3S system; type: cell-based, Yersinia enterocolitica; settings: 380 μM
[5] = molecular target: T3S needle complex (NC) (Salmonella typhimurium, UniProt P35672); type: cell-based, S. typhimurium
Sequence of T3S needle complex (NC) (P35672 25-562, one chain of several): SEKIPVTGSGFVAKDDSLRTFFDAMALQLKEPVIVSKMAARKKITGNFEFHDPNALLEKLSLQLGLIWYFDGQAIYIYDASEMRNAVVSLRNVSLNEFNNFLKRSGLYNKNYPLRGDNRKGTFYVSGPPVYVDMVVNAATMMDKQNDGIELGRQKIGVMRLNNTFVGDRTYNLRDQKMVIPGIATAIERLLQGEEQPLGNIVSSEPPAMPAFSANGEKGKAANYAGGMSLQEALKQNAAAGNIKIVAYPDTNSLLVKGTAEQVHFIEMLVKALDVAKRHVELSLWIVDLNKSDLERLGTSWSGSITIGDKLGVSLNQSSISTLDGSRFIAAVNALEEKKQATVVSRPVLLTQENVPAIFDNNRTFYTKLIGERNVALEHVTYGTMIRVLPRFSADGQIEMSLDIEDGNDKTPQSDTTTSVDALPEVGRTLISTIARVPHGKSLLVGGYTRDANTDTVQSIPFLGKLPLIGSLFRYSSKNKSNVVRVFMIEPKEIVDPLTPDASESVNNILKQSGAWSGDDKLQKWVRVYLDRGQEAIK

[6] = test system: InvG, PrgH and PrgK; assay: Abundance and membrane localization of NC proteins (Western blot of membrane fractions); type: cell-based, S. typhimurium; settings: 380 μM
Method: FIG. 3A is an image of a Western blot of type III secretion NC proteins isolated from S. typhimurium grown in the presence (+) or absence (−) of 380 μM of Compound 1. FIG. 3B is an image of a Western blot of membrane fractions of S. typhimurium grown in the presence (+) or absence (−) of 380 μM of Compound 1. In the presence of Compound 1, InvG cellular levels and bacterial membrane localization were unaltered (FIGS. 3A and 3B). Similarly, protein levels and localization of the other NC proteins PrgH and PrgK were unchanged.

[7] = test system: flagellar T3S system; assay: Flagellar function: motility assay and flagellin secretion; type: cell-based, S. typhimurium; settings: 380 μM
[8] = test system: P. aeruginosa twitching motility (T4P); assay: Twitching assay; type: cell-based, Pseudomonas aeruginosa; settings: 380 μM in motility plates
[9] = test system: Francisella virulence protein secretion; type: cell-based, Francisella novicida; settings: 380 μM
[10] = test system: Pseudomonas syringae pv tomato DC3000; assay: Hypersensitivity response (HR) in non-host tobacco plants; type: in vivo; settings: 380 μM, overlapping infiltration, compared with solvent alone; 24 hours
Description: Inhibition of T3S-dependent pathogenesis of the plant pathogen, Pseudomonas syringae pv tomato DC3000 for tobacco. The bacterial plant pathogen Pseudomonas syringae pv tomato DC3000 requires T3S of virulence determinants to cause disease. The hypersensitivity response (HR) elicited by P. syringae in non-host tobacco plants depends upon a functional T3S system, representing an established virulence model for this pathogen. To determine the effect of Compound 1 on P. syringae pathogenesis for plants, overlapping infiltrations of P. syringae and Compound 1 were performed. P. syringae was inoculated on non-host tobacco plants and monitored for HR. Bacterial inoculations partially overlapped inoculations of either 380 μM of Compound 1 or the solvent DMSO. HR was measured by tissue collapse of plants cells in the overlapping region.
Therefore, these compounds, which blocked disease in an important model of plant pathogenesis, may have utility in preventing disease of plants.

[11] = test system: bone marrow macrophages; assay: Cytotoxicity of compound added directly to macrophages (LDH release)
[12] = test system: T2-dependent secretion of elastase; assay: Elastolytic activity assay of culture supernatants (elastin Congo red); settings: 380 μM; 18 hour culture (PAO1-C); untreated PAO1 1.881, pilD 0.098
[13] = test system: invF, prgH, and sipA genes; assay: Transcriptional reporter fusions of T3S genes to lacZ, β-Galactosidase activity; settings: cultures grown in presence vs absence of compound
[14] = test system: bone marrow macrophages infected with S. typhimurium; assay: S. typhimurium T3-dependent cytotoxicity of bone marrow macrophages (LDH release); settings: bacteria grown in presence of compound; multiplicity of 40; 40% without compound

COc1cc(/C=C2\S/C(=N\c3ccccc3)N(c3ccccc3)C2=O)cc(OC)c1O [Compound 1]
inhibition of known T3S substrates ([1]; 380 uM): complete inhibition
% Secretion ([1]; type III secretion in S. typhimurium, SipA secretion by Western blot): 0 ± 0%
secretion of SipA and SspH1 expressed from the T3S-independent lac promoter [2]: Neither of these proteins was secreted
amount of T3 secreted proteins SipA, B, and C ([2]; cultures grown in presence of compound): marked decrease
Yop proteins in culture supernatants [3]: absent
Ysp proteins in culture supernatants [4]: absent
NC proteins in isolated needle complexes ([5]; 380 μM, Western blot): overall reduction
NC number on the cell surface ([5]; electron micrographs of osmotically shocked cells): marked reduction
InvG cellular levels and bacterial membrane localization [6]: unaltered
protein levels and localization of PrgH and PrgK [6]: unchanged
S. typhimurium motility [7]: unaffected
secretion of flagellin [7]: unaltered
P. aeruginosa twitching motility [8]: significantly reduced
secretion of the known Francisella virulence proteins [9]: inhibited secretion
ability of P. syringae to elicit HR [10]: reduced ability to elicit HR
lysis of macrophages exposed to compound alone [11]: did not lyse
OD495, elastolytic activity of culture supernatant [12]: 0.437
β-Galactosidase activity of invF, prgH, sipA lacZ fusions [13]: similar
caspase-1 dependent cell death of macrophages [14]: 0.5%

COc1cc(/C=C2\S/C(=N\c3ccccc3)N([C@@H](CC3CNc4ccccc43)C(=O)N[C@@H](CCCNC(=N)N)C(N)=O)C2=O)cc(OC)c1O (stereo partly shown) [compound 98]
% inhibition of SipA secretion ([1]; 3.3 μM): 2%
% inhibition of SipA secretion ([1]; 33 μM): 12%
% inhibition of SipA secretion ([1]; 330 μM): 100%

Source: patent US8252940B2, “5-substituted-2-imino-thiazolidinone compounds and their use as inhibitors of bacterial infection” (University of Washington, priority 2008, dated 2012)
